{"source": "patent EP4608400B1", "about": "“COMPOUND FOR TREATMENT OF PAIN” (Initiator Pharma A/S, priority 2022, dated 2024)", "key": {"CCI rats": {"system": "CCI rats", "assay": "Rat chronic constriction injury (CCI) model of neuropathic pain", "type": "in vivo, Sprague-Dawley rats", "conditions": "for paw withdrawal duration (pin prick) / weight bearing difference / paw withdrawal threshold (von Frey stimulation): 60 min prior; for paw withdrawal duration (pin prick): vehicle about 14.9 s; for weight bearing difference: vehicle about 51 %; for paw withdrawal threshold (von Frey stimulation): vehicle around 1.1 g", "method": "All treatments were administered s.c. in a dosing volume of 2 ml/kg 60 min prior to behavioural assessment.\nAdult male Sprague-Dawley rats (Harlan Scandinavia, Alleroed, Denmark) were used. They were housed in Macrolon III cages (20 x 14 x 18 cm or 20 x 40 x18 cm; in groups of 2-5 per cage according to weight) containing wood-chip bedding material (3 x 1 x 4 mm). The environment was temperature (20 ± 2°C) and humidity (55 ± 15%) controlled and consisted of a light-dark cycle of 13:11 h (lights on at 06.00 h and off at 19.00 h). Food (Altromin®) and water were available ad libitum. The rats were allowed to habituate to the housing facilities for at least one week prior to being randomly assigned to behavioural experiments. All experiments were performed according to the Ethical Guidelines of the International Association for the Study of Pain (Zimmermann, 1983) and the Danish Committee for Experiments on Animals.\nAll drug testing in CCI rats was performed blinded by the observer. A 2-3 day drug washout period was allowed, and the studies were conducted between 4-5 weeks after surgery. CCI rats used in this study had also been previously enrolled in similar experiments assessing the efficacy of other compound(s). Only those animals with distinct neuropathic behavior (von Frey response <4 g, pin prick response >10 s) were included in the study. Table C: Experimental groups\nChronic constriction injury procedure. A chronic constriction injury (CCI) was performed in rats (body weight 180-220 g at the time of surgery) under isoflurane anaesthesia as described previously (Bennett and Xie, 1988). The sciatic nerve was exposed at the mid-thigh level proximal to the sciatic trifurcation. Four chromic gut ligatures (4/0) (Ethicon, New Brunswick, NJ) were tied loosely around the nerve, 1-2 mm apart, such that the vascular supply was not compromised. The overlying muscle was closed in layers with 4/0 synthetic absorbable surgical suture. The skin was closed and sutured with 4/0 silk thread.\nBehavioural testing of nerve-injured rats. Nerve-injured rats were routinely tested for the presence of pain-like behaviours for up to 5 weeks after surgery, according to previously described methods (Munro et al., 2008). For testing of mechanical hypersensitivity individual rats were removed from their home cage and allowed to habituate for 15 min in a 15 x 20 cm white Plexiglas testing cage, placed upon an elevated metal grid allowing access to the plantar surface of the injured hindpaw. The presence of mechanical allodynia was assessed using a series of calibrated von Frey hairs (lower limit=0.065 and upper limit=19.3 g, Stoelting Co, Wood Dale IL), which were applied to the plantar surface of the hindpaw with increasing force until an individual filament used just started to bend. The filament was applied for a period of 1-2 s and was repeated 5 times at 1-2 s intervals. The filament that induced a reflex paw withdrawal in 3 out of 5 applications was considered to represent the threshold level for a response to occur. The presence of mechanical hyperalgesia was determined by pressing the plantar surface of the hindpaw with the point of a safety pin, at an intensity sufficient to produce a reflex withdrawal response in normal unoperated animals, but at an intensity which was insufficient to penetrate the skin. A cut-off time of 15 s was applied to long withdrawals often seen for the nerve-injured paw.\nChanges in hindpaw weight bearing were assessed using an incapacitance tester (Linton Instrumentation, U.K.), which incorporates a dual channel scale used to separately assess the weight distributed to each hindpaw of the rat. Normally, uninjured rats distribute their weight evenly between the two hindpaws (50:50). However, after tissue injury the rat preferentially favours the non-injured hindpaw, such that the weight bearing difference can be used as an index of spontaneous nociception. […]"}, "[1]": {"assay": "Phase I ascending single oral dose study: pharmacokinetics", "type": "in vivo, human", "conditions": "for Tmax / half-life: human, in vivo, po; for Tmax: single oral dose, postdose", "method": "Study design. The study was a Phase I, randomised, double-blind, placebo-controlled, ascending single oral dose, safety, tolerability, pharmacokinetic (PK) and pharmacodynamics (PD) study of IP2015 in healthy male subjects.\nEach subject received one oral dose of IP2015 or matched placebo. […] The dose level was to be escalated to a maximum of 0.05 mg in Cohort 2 and a maximum of 0.2 mg in Cohort 3. The doses in the remaining five cohorts were to be determined based on the dose escalation criteria.\nSubjects were required to attend the clinical research unit (CRU) for a screening visit within 28 days prior to dosing. […] All subjects remained in the CRU until Day 3 (48 hours postdose) for the collection of safety assessments, PK blood and urine samples, and CNS assessments.\nStudy Drug, Dose and Mode of Administration. IP2015 and matched placebo were provided as a powder in bottles for oral solution. […] Reconstitution was performed by a pharmacist at the clinical site prior to dosing.\nThe dose was taken with 240 mL of water at room temperature. Subjects/participants were fasted overnight prior to dosing until 4 hours postdose. Water was allowed ad libitum except for 1 hour before and 1 hour after dosing.\nThe doses used in each cohort were as follows: • Cohort 1 - 0.01 mg • Cohort 2 - 0.05 mg • Cohort 3 - 0.2 mg • Cohort 4 - 0.6 mg • Cohort 5 - 1.8 mg • Cohort 6 - 5.4 mg • Cohort 7 - 16.2 mg • Cohort 8 - 10 mg\nThe study also evaluated plasma PK concentrations and parameters including but not limited to: area under the plasma concentration vs time curve (AUC), from time zero to the last quantifiable concentration (AUC0-t), AUC from zero to infinity (AUC0-∞), observed maximum plasma concentration (Cmax), time to reach maximum plasma concentration (tmax) and terminal elimination half-life (T1/2) in healthy male subjects.\nStatistical methods. Safety parameters were listed and summarised using descriptive statistics. Pharmacokinetic parameter estimates were calculated using noncompartmental methods. Pharmacokinetic data were listed for each subject/patient and summarised by descriptive statistics.\nDose proportionality was analysed for Part A with a linear regression model using the logarithm of a PK parameter as responsible variable and the logarithm of the dose as the independent variable. The linear regression model can be expressed as: Log(yi) = α + β*log dosei + εi [formula] where α is the intercept, dosei is the actual dose of IP2015 for the ith subject and εi is the (within subject) random error in observing yi.\nThe above model was applied to the following PK parameters; AUC0-t, AUC0-∞ and Cmax. Based on the linear regression model, the dose proportionality coefficient (slope) and its two-sided 90% confidence interval (CI) were estimated. Dose proportionality was declared if the 90% CI for the slope was completely contained in the following range16: 1+log(0.5)/log(r), 1+log(2)/log(r), where r is the high dose/low dose."}}, "note": "Read-outs that look alike come from different tables or passages of the source."}
{"smiles": "COc1cc2ccc(O[C@@H]3C[C@H]4CC[C@@H](C3)N4)cc2oc1=O", "note": "[IP2015, exo-7-[(8-azabicyclo[3.2.1]octan-3-yl)oxy]-3-methoxy-chromen-2-one]", "values": [{"measurement": "paw withdrawal duration (pin prick)", "setting": "CCI rats; 3 mg/kg s.c.", "value": "about 12.3 s"}, {"measurement": "weight bearing difference", "setting": "CCI rats; 3 mg/kg s.c.", "value": "about 17%"}, {"measurement": "paw withdrawal threshold (von Frey stimulation)", "setting": "CCI rats; 3 mg/kg s.c.", "value": "about 5.7 g"}, {"measurement": "paw withdrawal duration (pin prick)", "setting": "CCI rats; 10 mg/kg s.c.", "value": "about 11.1 s"}, {"measurement": "weight bearing difference", "setting": "CCI rats; 10 mg/kg s.c.", "value": "about 11%"}, {"measurement": "paw withdrawal threshold (von Frey stimulation)", "setting": "CCI rats; 10 mg/kg s.c.", "value": "about 3.6 g"}, {"measurement": "CCI induced weight bearing deficits (overall effect)", "setting": "CCI rats; 3, 10 mg/kg s.c., CCI rats", "value": "robust dose-dependent reversal"}, {"measurement": "hindpaw withdrawal threshold to mechanical von Frey stimulation (overall effect)", "setting": "CCI rats; 3, 10 mg/kg s.c., CCI rats", "value": "small but significant increase"}, {"measurement": "behavioural observation in CCI rats", "setting": "CCI rats; 10 and especially 30 mg/kg s.c.", "value": "extremely alert, and possibly displayed signs of anxiogenic behaviour"}, {"measurement": "Plasma concentrations of IP2015", "setting": "[1]; 0.01 mg and 0.05 mg single oral dose, all subjects", "value": "below the LLOQ"}, {"measurement": "subjects with plasma concentrations below the LLOQ", "setting": "[1]; 0.2 mg single oral dose", "value": "3/7"}, {"measurement": "Tmax", "setting": "[1]; read-out: tmax (range across all dose levels)", "value": "1 to 6", "unit": "h"}, {"measurement": "Tmax", "setting": "[1]; range of medians across doses, read-out: Median tmax", "value": "2.25 to 5", "unit": "h"}, {"measurement": "half-life", "setting": "[1]; 0.6 mg, calculated for 1/6 subjects, read-out: mean t½ (converted)", "value": 14.5, "unit": "h"}, {"measurement": "half-life", "setting": "[1]; 1.8 mg, calculated for 3/6 subjects, read-out: mean t½ (converted)", "value": 16.1, "unit": "h"}, {"measurement": "half-life", "setting": "[1]; 5.4 mg to 16.2 mg doses, range of means, read-out: mean T½", "value": "23.1 to 26.3", "unit": "h"}]}
